≈ marks a conversion by molar mass, not a printed value. Where two headings read alike, the source gives them in different places.
Experiments:
S. aureus ATCC 29213 = test: microbe, parasite or virus in culture; details: for MIC: Staphylococcus aureus
Procedure: MIC determinations were performed using the broth microdilution method and in line with CLSI guidelines M07 and M100 (refs. [37],[38]). Bacterial inocula were prepared by diluting a 0.5 McFarland suspension in CAMHB or lysogeny broth (LB) specifically for A. baylyi isolates. […] MIC values of all of the tested antibiotics were read as the lowest compound concentration inhibiting bacterial growth by naked eye or beyond which the OD600 ceased to decrease.

HEK293 cells = test: Cell-viability assay (CellTiterGlo); format: cell-based; details: Homo sapiens, 24 h, 37 °C, 3.125–100 μM, n = 2
Procedure: Compounds were prepared in serial dilutions (3.125–100 μM in 1% DMSO) and transferred to 384-well plates together with a positive (Staurosporine) and a negative (no compound) control. In total, 25 μl of HEK293 cells (ATCC; verified by short tandem repeat PCR and mycoplasma negative) (50,000 cells per ml) were added in either low-serum-containing (0.5% fetal bovine serum (FBS)) or high-serum-containing (12.5% FBS, 1% BSA) medium (Dulbecco’s modified Eagle medium (DMEM), glucose, L-glutamine). The plates were incubated for 24 h at 37 °C and a mixture of CellTiterGlo and DMEM was added to the plates. After incubation at room temperature, the luminescence signal was read using a BioTeK reader and a calculated IC50 was derived from the data.

Muscarinic receptor M2 = biological target: T1, Muscarinic receptor M2 (Homo sapiens, UniProt P08172); test: Off-target screening (CEREP); format: binding; details: read-out: percent inhibition
T1 construct: purchased Eurofins CEREP SA
T1 sequence (P08172 1-466): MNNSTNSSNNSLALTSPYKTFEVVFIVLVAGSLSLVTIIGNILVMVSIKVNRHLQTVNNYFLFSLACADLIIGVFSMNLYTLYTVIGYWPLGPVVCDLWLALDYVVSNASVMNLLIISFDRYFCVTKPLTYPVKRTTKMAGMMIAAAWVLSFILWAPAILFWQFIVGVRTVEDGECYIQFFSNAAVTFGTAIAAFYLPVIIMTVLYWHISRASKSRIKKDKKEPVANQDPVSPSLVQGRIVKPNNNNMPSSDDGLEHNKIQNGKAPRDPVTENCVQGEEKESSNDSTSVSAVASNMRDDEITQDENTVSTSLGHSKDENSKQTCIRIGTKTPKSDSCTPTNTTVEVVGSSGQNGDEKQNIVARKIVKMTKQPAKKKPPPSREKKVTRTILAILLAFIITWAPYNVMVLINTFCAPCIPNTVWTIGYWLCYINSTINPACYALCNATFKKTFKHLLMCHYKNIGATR
Outline: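 Compounds are tested at a fixed 10 µM in duplicate, with no concentration–response. Activity is expressed as percent inhibition of either radioligand signal or control enzymatic activity.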

Acetylcholinesterase = biological target: T2, Acetylcholinesterase (Homo sapiens, UniProt P22303); test: Off-target screening (CEREP); format: biochemical; details: read-out: percent inhibition
T2 construct: purchased Eurofins CEREP SA
T2 sequence (P22303 32-614): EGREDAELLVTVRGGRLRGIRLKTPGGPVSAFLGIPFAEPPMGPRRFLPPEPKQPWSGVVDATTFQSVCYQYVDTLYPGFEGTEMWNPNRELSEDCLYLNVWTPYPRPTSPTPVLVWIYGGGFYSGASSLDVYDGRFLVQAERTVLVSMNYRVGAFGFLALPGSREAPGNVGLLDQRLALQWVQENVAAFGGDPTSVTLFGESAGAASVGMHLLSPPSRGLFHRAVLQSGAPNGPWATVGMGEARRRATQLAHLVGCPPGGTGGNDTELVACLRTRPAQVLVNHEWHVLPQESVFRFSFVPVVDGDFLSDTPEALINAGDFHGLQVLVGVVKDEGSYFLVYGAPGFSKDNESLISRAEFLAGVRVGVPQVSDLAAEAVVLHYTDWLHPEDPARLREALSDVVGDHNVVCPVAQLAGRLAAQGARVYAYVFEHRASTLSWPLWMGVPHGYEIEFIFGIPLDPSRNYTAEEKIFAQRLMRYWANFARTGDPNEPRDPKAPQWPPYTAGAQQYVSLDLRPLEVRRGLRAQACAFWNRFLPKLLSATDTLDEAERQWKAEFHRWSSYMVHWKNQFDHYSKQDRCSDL
Procedure: (§1) Supplementary Table 1 │ Off-target activity screening f or MCP compou nds […]
(§2) The assays given in the table above were conducted at Eurofins CEREP S A (Celle-Lévescault, France) and were run as single point measurements in duplicates in the presence of 10 µ M of the test compound and reported as percent inhibition of the radioligand signal or control enzymatic activity. n.d., not

[1] = biological target: T3, Angiotensin converting enzyme (Homo sapiens, UniProt P12821); test: Off-target screening (CEREP); format: biochemical; details: read-out: percent inhibition
T3 construct: purchased Eurofins CEREP SA
T3 sequence (P12821 30-1306): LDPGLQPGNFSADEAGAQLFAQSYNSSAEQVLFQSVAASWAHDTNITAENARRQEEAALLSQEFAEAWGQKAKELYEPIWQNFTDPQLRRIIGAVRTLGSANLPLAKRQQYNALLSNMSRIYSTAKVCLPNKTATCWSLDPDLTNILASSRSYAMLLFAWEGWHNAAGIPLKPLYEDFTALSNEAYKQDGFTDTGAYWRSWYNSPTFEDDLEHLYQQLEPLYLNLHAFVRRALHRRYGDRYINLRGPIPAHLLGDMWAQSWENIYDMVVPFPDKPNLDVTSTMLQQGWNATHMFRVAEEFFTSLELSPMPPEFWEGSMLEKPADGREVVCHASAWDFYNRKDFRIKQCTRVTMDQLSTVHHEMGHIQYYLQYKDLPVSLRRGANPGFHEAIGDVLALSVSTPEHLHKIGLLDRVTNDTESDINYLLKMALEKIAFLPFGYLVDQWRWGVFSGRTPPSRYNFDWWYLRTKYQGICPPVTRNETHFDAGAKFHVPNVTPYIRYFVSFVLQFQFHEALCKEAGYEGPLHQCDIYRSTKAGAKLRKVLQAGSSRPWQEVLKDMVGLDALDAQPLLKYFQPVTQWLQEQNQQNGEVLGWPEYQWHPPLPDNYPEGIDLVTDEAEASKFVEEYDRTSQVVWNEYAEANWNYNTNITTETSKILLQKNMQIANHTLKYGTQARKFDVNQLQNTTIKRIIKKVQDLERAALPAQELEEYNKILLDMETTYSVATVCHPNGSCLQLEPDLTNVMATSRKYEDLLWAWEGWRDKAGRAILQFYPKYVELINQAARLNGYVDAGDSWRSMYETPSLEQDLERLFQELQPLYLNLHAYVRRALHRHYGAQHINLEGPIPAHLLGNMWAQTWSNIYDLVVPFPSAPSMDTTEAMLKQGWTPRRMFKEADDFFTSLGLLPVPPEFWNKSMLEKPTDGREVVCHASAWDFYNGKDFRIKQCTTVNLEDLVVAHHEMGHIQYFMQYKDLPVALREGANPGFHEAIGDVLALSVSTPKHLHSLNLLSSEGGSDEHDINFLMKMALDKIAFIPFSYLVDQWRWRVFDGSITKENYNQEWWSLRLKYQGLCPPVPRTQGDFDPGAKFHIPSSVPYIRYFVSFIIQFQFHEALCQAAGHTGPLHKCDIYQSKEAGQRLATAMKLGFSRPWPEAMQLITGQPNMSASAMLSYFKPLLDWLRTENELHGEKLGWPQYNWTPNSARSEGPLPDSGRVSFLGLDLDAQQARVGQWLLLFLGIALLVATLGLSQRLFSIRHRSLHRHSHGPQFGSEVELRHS
Procedure: as §1, §2

HIV-1 protease = test: Off-target screening (CEREP); format: biochemical; details: 10 µM, duplicates
Procedure: as §1, §2

Monoamine oxidase-A = biological target: T4, Monoamine oxidase-A (Homo sapiens, UniProt P21397); test: Off-target screening (CEREP); format: biochemical; details: read-out: percent inhibition
T4 construct: purchased Eurofins CEREP SA
T4 sequence (P21397 1-527): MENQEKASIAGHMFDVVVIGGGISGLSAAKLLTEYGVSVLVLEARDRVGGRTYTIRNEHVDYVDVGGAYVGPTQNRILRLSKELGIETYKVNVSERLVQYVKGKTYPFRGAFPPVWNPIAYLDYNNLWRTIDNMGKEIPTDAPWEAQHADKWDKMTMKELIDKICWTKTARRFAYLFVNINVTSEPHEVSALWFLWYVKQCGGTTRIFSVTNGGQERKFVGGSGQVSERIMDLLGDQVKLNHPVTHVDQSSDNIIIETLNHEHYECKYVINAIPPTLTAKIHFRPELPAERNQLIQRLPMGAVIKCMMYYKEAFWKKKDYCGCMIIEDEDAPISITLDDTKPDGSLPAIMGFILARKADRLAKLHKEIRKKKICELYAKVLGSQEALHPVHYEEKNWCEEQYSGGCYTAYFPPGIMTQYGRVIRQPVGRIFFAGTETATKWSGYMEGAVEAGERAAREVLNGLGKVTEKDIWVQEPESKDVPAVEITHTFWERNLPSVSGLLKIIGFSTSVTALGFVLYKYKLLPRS
Procedure: as §1, §2

Phosphodiesterase 4D2 = biological target: T5, Phosphodiesterase 4D2 (Homo sapiens, UniProt Q08499); test: Off-target screening (CEREP); format: biochemical; details: read-out: percent inhibition
T5 construct: purchased Eurofins CEREP SA
T5 sequence (Q08499 303-809 limits assumed): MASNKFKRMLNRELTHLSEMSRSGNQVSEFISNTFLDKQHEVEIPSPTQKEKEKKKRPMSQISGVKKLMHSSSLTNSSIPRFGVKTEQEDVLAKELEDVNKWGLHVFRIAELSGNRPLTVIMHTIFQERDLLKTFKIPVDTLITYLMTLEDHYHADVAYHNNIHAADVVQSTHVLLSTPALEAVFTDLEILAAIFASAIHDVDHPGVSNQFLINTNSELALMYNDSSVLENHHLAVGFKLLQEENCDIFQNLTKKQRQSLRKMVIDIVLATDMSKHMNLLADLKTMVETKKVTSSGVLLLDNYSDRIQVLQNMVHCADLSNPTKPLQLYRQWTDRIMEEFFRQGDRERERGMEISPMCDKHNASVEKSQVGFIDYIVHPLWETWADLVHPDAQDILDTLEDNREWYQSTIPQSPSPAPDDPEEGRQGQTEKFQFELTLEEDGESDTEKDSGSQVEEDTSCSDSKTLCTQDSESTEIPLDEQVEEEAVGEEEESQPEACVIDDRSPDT
Procedure: as §1, §2

[2] = tested on: GABA-A (benzodiazapine binding site); test: Off-target screening (CEREP); design: species or system rat; details: 10 µM, duplicates
Procedure: as §1, §2

[3] = tested on: Nicotinic receptor, muscle; test: Off-target screening (CEREP); format: binding, human; details: 10 µM, duplicates
Procedure: as §1, §2

[4] = tested on: Nicotinic receptor, neuronal; test: Off-target screening (CEREP); format: binding, human; details: 10 µM, duplicates
Procedure: as §1, §2

C. albicans ATCC 90028 = test: microbe, parasite or virus in culture; details: Candida albicans

CN1C(=O)[C@H](CCCCN)NC(=O)[C@H](CCCN)NCc2cccnc2Sc2c(Cl)ccc(Cl)c2CNC(=O)[C@@H]1Cc1c[nH]c2ccccc12 [RO7075573]
MIC (S. aureus ATCC 29213; ATCC29213): > 64 µg/mL | MIC 100% (S. aureus ATCC 29213; Study LGC281440, 100%): >64 µg/mL | MIC 100% (S. aureus ATCC 29213; Study LGC282160, 100%): >64 µg/mL | MIC 100% (S. aureus ATCC 29213; Study LGC284879, 100%): >64 µg/mL | MIC 100% (S. aureus ATCC 29213; Study LGC285582, 100%): >64 µg/mL | MIC 100% (S. aureus ATCC 29213; Study LGC286210, 100%): 64 µg/mL (≈ 86.5 µM) | MIC 100% (S. aureus ATCC 29213; Study LGC293598, 100%): >64 µg/mL | MIC 100% (S. aureus ATCC 29213; Study LGC294355, 100%): >64 µg/mL | MIC 100% (S. aureus ATCC 29213; Study LGC295147, 100%): 64 µg/mL (≈ 86.5 µM) | MIC 100% (S. aureus ATCC 29213; Study LGC296813, 100%): >64 µg/mL | MIC 100% (S. aureus ATCC 29213; Study LGC299544, 100%): 64 µg/mL (≈ 86.5 µM) | MIC 100% (S. aureus ATCC 29213; Study LGC301026, 100%): >64 µg/mL | MIC 100% (S. aureus ATCC 29213; Study LGC308175, 100%): >64 µg/mL | MIC 100% (S. aureus ATCC 29213; Study ROC010, 100%): 32 µg/mL (≈ 43.3 µM) | MIC 100% (S. aureus ATCC 29213; Study ROC012, 100%): 32 µg/mL (≈ 43.3 µM) | IC50 (HEK293 cells): > 100 µM | Ames (Ames): Negative | inhibition at 10 µM (Muscarinic receptor M2): 11% | inhibition at 10 µM (Acetylcholinesterase): 4% | inhibition at 10 µM [1]: -7% | percent inhibition (HIV-1 protease): -4% | inhibition at 10 µM (Monoamine oxidase-A): 3% | inhibition at 10 µM (Phosphodiesterase 4D2): 0% | percent inhibition [2]: -20% | percent inhibition [3]: 5% | percent inhibition [4]: -7% | MIC (C. albicans ATCC 90028; ATCC90028): > 64 µg/mL

C[C@@H](O)[C@H]1C(=O)N2C(C(=O)O)=C(S[C@@H]3CN[C@H](C(=O)N(C)C)C3)[C@H](C)[C@H]12 [meropenem, reference compound]
MIC (S. aureus ATCC 29213; ATCC29213, CAMHB, mode of at least three replicates (RO7036668 one replicate)): 0.12 µg/mL (≈ 0.313 µM) | MIC (S. aureus ATCC 29213; ATCC29213, read-out: MIC 100%, Study LGC277937, 100%): 0.12 µg/mL (≈ 0.313 µM) | MIC (S. aureus ATCC 29213; ATCC29213, read-out: MIC 100%, Study LGC279800, 100%): ≤ 0.06 µg/mL | MIC (S. aureus ATCC 29213; ATCC29213, read-out: MIC 100%, Study LGC281440, 100%): 0.12 µg/mL (≈ 0.313 µM) | MIC (S. aureus ATCC 29213; ATCC29213, read-out: MIC 100%, Study LGC282160, 100%): ≤ 0.06 µg/mL | MIC (S. aureus ATCC 29213; ATCC29213, read-out: MIC 100%, Study LGC282623, 100%): 0.12 µg/mL (≈ 0.313 µM) | MIC (S. aureus ATCC 29213; ATCC29213, read-out: MIC 100%, Study LGC283932, 100%): 0.12 µg/mL (≈ 0.313 µM) | MIC (S. aureus ATCC 29213; ATCC29213, read-out: MIC 100%, Study LGC284200, 100%): 0.12 µg/mL (≈ 0.313 µM) | MIC (S. aureus ATCC 29213; ATCC29213, read-out: MIC 100%, Study LGC284879, 100%): 0.12 µg/mL (≈ 0.313 µM) | MIC (S. aureus ATCC 29213; ATCC29213, read-out: MIC 100%, Study LGC285582, 100%): 0.12 µg/mL (≈ 0.313 µM) | MIC (S. aureus ATCC 29213; ATCC29213, read-out: MIC 100%, Study LGC286210, 100%): 0.25 µg/mL (≈ 0.652 µM) | MIC (S. aureus ATCC 29213; ATCC29213, read-out: MIC 100%, Study LGC293598, 100%): 0.12 µg/mL (≈ 0.313 µM) | MIC (S. aureus ATCC 29213; ATCC29213, read-out: MIC 100%, Study LGC294355, 100%): ≤ 0.06 µg/mL | MIC (S. aureus ATCC 29213; ATCC29213, read-out: MIC 100%, Study LGC295147, 100%): 0.12 µg/mL (≈ 0.313 µM) | MIC (S. aureus ATCC 29213; ATCC29213, read-out: MIC 100%, Study LGC296813, 100%): ≤ 0.06 µg/mL | MIC (S. aureus ATCC 29213; ATCC29213, read-out: MIC 100%, Study LGC299544, 100%): 0.12 µg/mL (≈ 0.313 µM) | MIC (S. aureus ATCC 29213; ATCC29213, read-out: MIC 100%, Study LGC301026, 100%): 0.12 µg/mL (≈ 0.313 µM) | MIC (S. aureus ATCC 29213; ATCC29213, read-out: MIC 100%, Study LGC308175, 100%): ≤ 0.06 µg/mL | MIC (S. aureus ATCC 29213; ATCC29213, read-out: MIC 100%, Study ROC003, 100%): ≤ 0.06 µg/mL | MIC (S. aureus ATCC 29213; ATCC29213, read-out: MIC 100%, Study ROC004, 100%): ≤ 0.06 µg/mL | MIC (S. aureus ATCC 29213; ATCC29213, read-out: MIC 100%, Study ROC005, 100%): ≤ 0.06 µg/mL | MIC (S. aureus ATCC 29213; ATCC29213, read-out: MIC 100%, Study ROC006, 100%): 0.12 µg/mL (≈ 0.313 µM) | MIC (S. aureus ATCC 29213; ATCC29213, read-out: MIC 100%, Study ROC007, 100%): 0.12 µg/mL (≈ 0.313 µM) | MIC (S. aureus ATCC 29213; ATCC29213, read-out: MIC 100%, Study ROC008, 100%): 0.12 µg/mL (≈ 0.313 µM) | MIC (S. aureus ATCC 29213; ATCC29213, read-out: MIC 100%, Study ROC009, 100%): ≤ 0.06 µg/mL | MIC (S. aureus ATCC 29213; ATCC29213, read-out: MIC 100%, Study ROC010, 100%): ≤ 0.06 µg/mL | MIC (S. aureus ATCC 29213; ATCC29213, read-out: MIC 100%, Study ROC012, 100%): ≤ 0.06 µg/mL | MIC (S. aureus ATCC 29213; ATCC29213, read-out: MIC 100%, Study ROC013, 100%): 0.12 µg/mL (≈ 0.313 µM) | MIC (C. albicans ATCC 90028; ATCC90028): > 64 µg/mL | MIC (C. albicans ATCC 90028; ATCC90028, read-out: MIC 100%): > 64 µg/mL

Source: PMC10794144, “A novel antibiotic class targeting the lipopolysaccharide transporter” (Nature, 2024)
